In brackets after ≈: the same amount, converted by molar mass.

The values that follow come from ChEMBL document CHEMBL1151209, “New quassinoids, javanicolides C and D and javanicosides B--F, from seeds of Brucea javanica” (J Nat Prod, 2004).

For the test, the system named is P388. Description: Cytotoxicity against mouse P388 cells after 48 hrs by MTT assay. Format: functional, cell-based. Particulars: P388, 48 h.
As to `COC(=O)[C@@]12OC[C@]34[C@H]([C@@H](O)[C@@H]1O)[C@@]1(C)C[C@@H](O)[C@@H](O)[C@@H](C)[C@@H]1C[C@H]3OC(=O)[C@H](OC(=O)C=C(C)C)[C@@H]24` [JAVANICOLIDE C], the IC50 was over 100 µg/mL.

Take `COC(=O)[C@@]12OC[C@]34[C@H]([C@@H](O)[C@@H]1O)[C@@]1(C)C(=O)C(O[C@@H]5O[C@H](CO)[C@@H](O)[C@H](O)[C@H]5O)=C[C@@H](C)[C@@H]1C[C@H]3OC(=O)[C@H](OC(=O)CC(C)C)[C@@H]24` [JAVANICOSIDE B]: the IC50 is 5.6 µg/mL (≈ 8.18 µM).

`COC(=O)[C@@]12OC[C@]34[C@H]([C@@H](O)[C@@H]1O)[C@@]1(C)[C@H](O)[C@@H](O)C=C(C)[C@@H]1C[C@H]3OC(=O)[C@H](OC(=O)/C=C(\C)C(C)(C)O)[C@@H]24` [JAVANICOLIDE D] had an IC50 of 18 µg/mL (≈ 31.8 µM).

In turn, `CC/C(C)=C/C(=O)O[C@H]1C(=O)O[C@@H]2C[C@H]3[C@H](C)C(=O)C(O[C@@H]4O[C@H](CO)[C@@H](O)[C@H](O)[C@H]4O)=C[C@]3(C)[C@H]3[C@@H](O)[C@H](O)[C@@]4(C(=O)OC)OC[C@]32[C@@H]14` [JAVANICOSIDE F] displayed an IC50 of 50 µg/mL (≈ 71.8 µM).

Regarding `COC(=O)[C@@]12OC[C@@]34[C@@H](CC5=C(C)C(=O)C(O[C@@H]6O[C@H](CO)[C@@H](O)[C@H](O)[C@H]6O)=C[C@]5(C)[C@H]3[C@@H](O)[C@@H]1O)OC(=O)[C@H](OC(=O)C=C(C)C)[C@@H]24` [JAVANICOSIDE C], the IC50 stood at 18 µg/mL (≈ 26.4 µM).

In turn, `COC(=O)[C@@]12OC[C@]34[C@H]([C@@H](O)[C@@H]1O)[C@@]1(C)C=C(O[C@@H]5O[C@H](CO)[C@@H](O)[C@H](O)[C@H]5O)C(=O)[C@@H](C)[C@@H]1C[C@H]3OC(=O)[C@H](OC(=O)CC(C)C(C)(C)OC(C)=O)[C@@H]24` (some centres not stated) [JAVANICOSIDE E] registered an IC50 of 16 µg/mL (≈ 20.8 µM).

In the case of `CC/C(=C\C(=O)O[C@H]1C(=O)O[C@@H]2C[C@H]3[C@H](C)C(=O)C(O[C@@H]4O[C@H](CO)[C@@H](O)[C@H](O)[C@H]4O)=C[C@]3(C)[C@H]3[C@@H](O)[C@H](O)[C@@]4(C(=O)OC)OC[C@]32[C@@H]14)C(C)(C)O` [JAVANICOSIDE D], the IC50 came to 89 µg/mL (≈ 120 µM).
